Test results reported in patent publication US10022373B2, “Posaconazole pharmaceutical compositions and preparation methods, uses and pharmaceutical formulations thereof” (SINOTHERAPEUTICS INC., priority 2014, dated 2018).
Where two headings read alike, the source gives them in different places.

Columns and labels:
[1] = Apparent solubility in phosphate buffer solution pH 6.8; format: physicochemical
Method: Weighting an excess amount of posaconazole pharmaceutical composition into a container, adding phosphate buffer solution (pH 6.8, about ⅔ of the volume of the container), and then placing the container in a shaking table at 37° C., and shaking for 3 h. Filtering the content with a 0.45 μm filter membrane, collecting the filtrate, diluting it with an appropriate amount of methanol, vortex mixing, and then determining the concentration of posaconazole via the following HPLC method: […]

[2] = Dissolution rate, USP II paddle method, simulated in vivo condition; format: physicochemical; conditions: medium conversion pH 1.2→6.8
Method: Analytical method for dissolution samples: the same as the HPLC method in the above assay of apparent solubility.
It was reported that the pH value in human stomach was about 1.2, and that in human intestine was about 6.8. The dissolution of each of the pharmaceutical compositions of the present invention was determined under a stimulated in vivo condition, and the results are shown in Table 1-3.

[3] = cited from earlier work

## CC[C@@H]([C@H](C)O)n1ncn(-c2ccc(N3CCN(c4ccc(OC[C@@H]5CO[C@@](Cn6cncn6)(c6ccc(F)cc6F)C5)cc4)CC3)cc2)c1=O [API, 4-[4-[4-[4-[[(3R,5R)-5-(2,4-difluorophenyl)-5-(1,2,4-triazole-1-ylmethyl)oxolan-3-yl]methoxy]phenyl]piperazin-1-yl]phenyl]-2-[(2S,3S)-2-hydroxypentan-3-yl]-1,2,4-triazol-3-one]
[1]; aqueous buffer, thermodynamic from solid, phosphate buffer solution pH 6.8, 37° C., shaking 3 h
  solubility at 3 h: < 1 µg/mL
[1]; phosphate buffer solution pH 6.8
  Apparent solubility ratio (composition/API): 1
[2]; pH 1.2, 5 min
  Dissolution: 89.0%
[2]; pH 1.2, 10 min
  Dissolution: 87.0%
[2]; pH 1.2, 30 min
  Dissolution: 98.7%
[2]; pH 6.8, 60 min
  Dissolution: 7.1%
[2]; pH 6.8, 120 min
  Dissolution: 5.6%
[2]; pH 6.8, 180 min
  Dissolution: 5.6%
[3]; free base form, environment of the stomach pH=˜1.2
  Solubility: about 0.8 mg/ml
[3]; pH higher than 4
  Solubility: < 1 µg/mL
